Data taken from patent US10487092B2, “Pyrazolopyridinamines as MKNK1 and MKNK2 inhibitors” (BAYER PHARMA AKTIENGESELLSCHAFT, priority 2014, dated 2019).

What was measured:
human full-length MKNK1 = human full-length MKNK1 (Homo sapiens (Human), UniProt Q9BUB5, T344D); experiment: MKNK1 kinase high ATP assay (TR-FRET); format: biochemical; conditions: high ATP (2 mM), 15 min preincubation with enzyme; read-out: MKNK1 IC50
Outline: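 GST-tagged full-length MKNK1 (aa 1–424, T344D; insect-cell expressed) preincubated 15 min with compound, then reacted 30 min at 22 °C with 2 mM ATP and 0.06 μM biotinylated peptide (final) in HEPES pH 7.5 buffer. Phosphopeptide detected by TR-FRET 665/620 ratio, normalized to no-inhibitor and no-enzyme controls.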

[1] = system: secretion of TNF-α in human PBMCs; experiment: In vitro IL-1β-induced cytokine (TNF-α) secretion of human PBMCs; format: cell-based; conditions: PBMC; human PBMCs stimulated with 20 ng/ml IL-1β for 24 hours
Text: In Vitro IL-1β (Interleukin-1 beta, IL-1b)-Induced Cytokine Secretion of Human PBMCs (Peripheral Blood Mononuclear Cells)
The effect of the chemical compounds on the induced cytokine secretion of human PBMCs has been investigated. Here, the cytokine secretion has been induced by IL-1β which binding to its receptors leads to the activation of the MKNK signaling pathway.
Human PBMCs have been isolated from anti-coagulated human whole blood donated from healthy volunteers by pre-filling Leucosep tubes with ficoll-paque (15 ml, Biochrom, order ID: L6115) and adding 20 ml whole blood. After centrifugation of the blood at 800 g for 15 min at room temperature (RT) plasma including thrombocytes has been discarded. PBMCs were transferred to a new falcon tube, washed with PBS (phosphate-buffered saline) at 250 g for 10 min at RT and resuspended in complete medium [RPMI 1640, without L-glutamine (PAA, order ID: E15-039), 10% FCS; 50 U/ml Penicillin, 50 μg/ml Streptomycin (PAA, order ID: P11-010) and 1% L-glutamine (Sigma, order ID. G7513)]. The assay was performed in a 96-well plate at a cell density of 2.5×10^5 cells/well as triplicates. The compounds were serially diluted in DMSO and added to the PBMCs at a range of 3×10^−9 M to 1×10^−5M with a final concentration of 0.4% DMSO, respectively. Treatment of PBMCs with 0.4% DMSO was used as control. After 30 min of incubation, PBMCs were stimulated with 20 ng/ml IL-1β (R&D, order ID: 201-LB CF) for 24 hours. Cell viability was measured using the CellTiter-Glo Luminescent Assay (Promega, order ID: G7571) following the manufacturers protocol. The amount of secreted TNF-α (tumor necrosis factor-alpha) in the supernatant was determined using the Human Prolnflammatory 9-Plex (MSD, order ID: K15007B) according to manufacturer's instruction. The inhibitory activity was determined as the relation to the control in percent. IC50 values were calculated using the 4-parameter logistic model.

Sequence of human full-length MKNK1 (Q9BUB5 other isoform, or with tags, fused parts or gaps T344D): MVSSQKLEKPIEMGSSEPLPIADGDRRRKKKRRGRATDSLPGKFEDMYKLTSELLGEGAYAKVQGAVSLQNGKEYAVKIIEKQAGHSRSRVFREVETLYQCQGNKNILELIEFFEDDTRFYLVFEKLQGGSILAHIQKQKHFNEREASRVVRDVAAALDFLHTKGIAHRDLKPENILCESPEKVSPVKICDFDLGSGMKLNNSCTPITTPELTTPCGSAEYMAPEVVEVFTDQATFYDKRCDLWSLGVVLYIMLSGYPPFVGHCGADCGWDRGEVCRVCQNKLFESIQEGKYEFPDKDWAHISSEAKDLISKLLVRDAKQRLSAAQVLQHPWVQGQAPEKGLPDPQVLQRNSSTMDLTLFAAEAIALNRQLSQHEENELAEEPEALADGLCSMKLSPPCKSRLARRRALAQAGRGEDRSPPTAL

Row | Molecule | IC50 (human full-length MKNK1) [nM] | IC50 [1] [nM]
1 | COc1cn2nccc2cc1Nc1ncnc2sc3c(c12)CC[C@H](C(=O)N(C)C)C3 [Example 15, (7S)-4-[(6-Methoxypyrazolo[1,5-a]pyridin-5-yl)amino]-N,N-dimethyl-5,6,7,8-tetrahydro[1]benzothieno[2,3-d]pyrimidine-7-carboxamide] | 4 | 10 to 100
2 | CN(C)CCCN(C)C(=O)[C@H]1CCc2c(sc3ncnc(Nc4ccn5nccc5c4)c23)C1 [Example 27, (7S)—N-[3-(Dimethylamino)propyl]-N-methyl-4-(pyrazolo[1,5-a]pyridin-5-ylamino)-5,6,7,8-tetrahydro[1]benzothieno[2,3-d]pyrimidine-7-carboxamide] | 13 | ≥ 100
3 | CN(C)C1CCN(C(=O)[C@H]2CCc3c(sc4ncnc(Nc5ccn6nccc6c5)c34)C2)CC1 [Example 32, [4-(Dimethylamino)piperidin-1-yl][(7S)-4-(pyrazolo[1,5-a]pyridin-5-ylamino)-5,6,7,8-tetrahydro[1]benzothieno[2,3-d]pyrimidin-7-yl]methanone] | 25 | 10 to 100
4 | CN(CCN)C(=O)[C@H]1CCc2c(sc3ncnc(Nc4ccn5nccc5c4)c23)C1 [Example 39, (7S)—N-(2-Aminoethyl)-N-methyl-4-(pyrazolo[1,5-a]pyridin-5-ylamino)-5,6,7,8-tetrahydro[1]benzothieno[2,3-d]pyrimidine-7-carboxamide] | 41 | ≥ 100
5 | CN(C)CCCN(C)C(=O)[C@H]1CCc2c(sc3ncnc(Nc4cc5ccnn5cc4Cl)c23)C1 [Example 51, (7S)-4-[(6-Chloropyrazolo[1,5-a]pyridin-5-yl)amino]-N-[3-(dimethylamino)propyl]-N-methyl-5,6,7,8-tetrahydro[1]benzothieno[2,3-d]pyrimidine-7-carboxamide] | 5 | 10 to 100
6 | CN(C)CCN(C)C(=O)[C@H]1CCc2c(sc3ncnc(Nc4cc5ccnn5cc4Cl)c23)C1 [Example 53, (7S)-4-[(6-Chloropyrazolo[1,5-a]pyridin-5-yl)amino]-N-[2-(dimethylamino)ethyl]-N-methyl-5,6,7,8-tetrahydro[1]benzothieno[2,3-d]pyrimidine-7-carboxamide] | 9 | ≥ 100
7 | CN(C)C1CN(C(=O)[C@H]2CCc3c(sc4ncnc(Nc5cc6ccnn6cc5Cl)c34)C2)C1 [Example 54, (7S)-4-[(6-Chloropyrazolo[1,5-a]pyridin-5-yl)amino]-5,6,7,8-tetrahydro[1]benzothieno[2,3-d]pyrimidin-7-yl[3-(dimethylamino)azetidin-1-yl]methanone] | 11 | 10 to 100
8 | CN1CCN(C(=O)[C@H]2CCc3c(sc4ncnc(Nc5cc6ccnn6cc5Cl)c34)C2)CC1 [Example 65, (7S)-4-[(6-Chloropyrazolo[1,5-a]pyridin-5-yl)amino]-5,6,7,8-tetrahydro[1]benzothieno[2,3-d]pyrimidin-7-yl(4-methylpiperazin-1-yl)methanone] | 5 | 10 to 100
9 | COc1cn2nccc2cc1Nc1ncnc2sc3c(c12)CC[C@H](C(=O)NC(C)C)C3 [Example 85, (7S)-4-[(6-Methoxypyrazolo[1,5-a]pyridin-5-yl)amino]-N-(propan-2-yl)-5,6,7,8-tetrahydro[1]benzothieno[2,3-d]pyrimidine-7-carboxamide] | 4 | 1 to 10
10 | COc1cn2nccc2cc1Nc1ncnc2sc3c(c12)CC[C@H](C(=O)N(C)CC(F)F)C3 [Example 95, (7S)—N-(2,2-Difluoroethyl)-4-[(6-methoxypyrazolo[1,5-a]pyridin-5-yl)amino]-N-methyl-5,6,7,8-tetrahydro[1]benzothieno[2,3-d]pyrimidine-7-carboxamide] | 2 | 10 to 100
11 | COc1cn2nccc2cc1Nc1ncnc2sc3c(c12)CC[C@H](C(=O)N1CC(C#N)C1)C3 [Example 98, 1-((7S)-4-[(6-Methoxypyrazolo[1,5-a]pyridin-5-yl)amino]-5,6,7,8-tetrahydro[1]benzothieno[2,3-d]pyrimidin-7-ylcarbonyl)azetidine-3-carbonitrile] | 1 | ≥ 100
12 | COc1cn2nccc2cc1Nc1ncnc2sc3c(c12)CC[C@H](C(=O)N1CC(C)(O)C1)C3 [Example 100, (3-Hydroxy-3-methylazetidin-1-yl)(7S)-4-[(6-methoxypyrazolo[1,5-a]pyridin-5-yl)amino]-5,6,7,8-tetrahydro[1]benzothieno[2,3-d]pyrimidin-7-ylmethanone] | < 1 | 1 to 10
13 | CCN(CCN(C)C)C(=O)[C@H]1CCc2c(sc3ncnc(Nc4cc5ccnn5cc4OC)c23)C1 [Example 115, (7S)—N-[2-(Dimethylamino)ethyl]-N-ethyl-4-[(6-methoxypyrazolo[1,5-a]pyridin-5-yl)amino]-5,6,7,8-tetrahydro[1]benzothieno[2,3-d]pyrimidine-7-carboxamide] | 1 | –
14 | CCN(CCO)C(=O)[C@H]1CCc2c(sc3ncnc(Nc4cc5ccnn5cc4OC)c23)C1 [Example 117, (7S)—N-Ethyl-N-(2-hydroxyethyl)-4-[(6-methoxypyrazolo[1,5-a]pyridin-5-yl)amino]-5,6,7,8-tetrahydro[1]benzothieno[2,3-d]pyrimidine-7-carboxamide] | 1 | –
15 | CCN(CCOC)C(=O)[C@H]1CCc2c(sc3ncnc(Nc4cc5ccnn5cc4OC)c23)C1 [Example 118, (7S)—N-Ethyl-N-(2-methoxyethyl)-4-[(6-methoxypyrazolo[1,5-a]pyridin-5-yl)amino]-5,6,7,8-tetrahydro[1]benzothieno[2,3-d]pyrimidine-7-carboxamide] | 1 | –
16 | COCCN(CCOC)C(=O)[C@H]1CCc2c(sc3ncnc(Nc4cc5ccnn5cc4OC)c23)C1 [Example 119, (7S)—N,N-Bis(2-methoxyethyl)-4-[(6-methoxypyrazolo[1,5-a]pyridin-5-yl)amino]-5,6,7,8-tetrahydro[1]benzothieno[2,3-d]pyrimidine-7-carboxamide] | < 1 | –
17 | COc1cn2nccc2cc1Nc1ncnc2sc3c(c12)CC[C@H](C(=O)N(C)C(C)(C)C)C3 [Example 120, (7S)—N-tert-Butyl-4-[(6-methoxypyrazolo[1,5-a]pyridin-5-yl)amino]-N-methyl-5,6,7,8-tetrahydro[1]benzothieno[2,3-d]pyrimidine-7-carboxamide] | 5 | –
18 | COc1cn2nccc2cc1Nc1ncnc2sc3c(c12)CC[C@H](C(=O)N1C[C@@H]2C[C@H]1CN2C)C3 [Example 121, (7S)-4-[(6-Methoxypyrazolo[1,5-a]pyridin-5-yl)amino]-5,6,7,8-tetrahydro[1]benzothieno[2,3-d]pyrimidin-7-yl[(1S,4S)-5-methyl-2,5-diazabicyclo[2.2.1]hept-2-yl]methanone] | 1 | –
19 | COc1cn2nccc2cc1Nc1ncnc2sc3c(c12)CC[C@H](C(=O)N1C[C@H]2C[C@@H]1CN2C)C3 [Example 122, (7S)-4-[(6-Methoxypyrazolo[1,5-a]pyridin-5-yl)amino]-5,6,7,8-tetrahydro[1]benzothieno[2,3-d]pyrimidin-7-yl[(1R,4R)-5-methyl-2,5-diazabicyclo[2.2.1]hept-2-yl]methanone] | < 1 | –
20 | COc1cn2nccc2cc1Nc1ncnc2sc3c(c12)CC[C@H](C(=O)N1C[C@@H]2C[C@H]1CO2)C3 [Example 123, (7S)-4-[(6-Methoxypyrazolo[1,5-a]pyridin-5-yl)amino]-5,6,7,8-tetrahydro[1]benzothieno[2,3-d]pyrimidin-7-yl[(1S,4S)-2-oxa-5-azabicyclo[2.2.1]hept-5-yl]methanone] | 2 | –
21 | COc1cn2nccc2cc1Nc1ncnc2sc3c(c12)CC[C@H](C(=O)N1C[C@H]2C[C@@H]1CO2)C3 [Example 124, (7S)-4-[(6-Methoxypyrazolo[1,5-a]pyridin-5-yl)amino]-5,6,7,8-tetrahydro[1]benzothieno[2,3-d]pyrimidin-7-yl[(1R,4R)-2-oxa-5-azabicyclo[2.2.1]hept-5-yl]methanone] | 1 | –
22 | COc1cn2nccc2cc1Nc1ncnc2sc3c(c12)CC[C@H](C(=O)N1CCOC[C@H]1C)C3 [Example 126, (7S)-4-[(6-Methoxypyrazolo[1,5-a]pyridin-5-yl)amino]-5,6,7,8-tetrahydro[1]benzothieno[2,3-d]pyrimidin-7-yl[(3R)-3-methylmorpholin-4-yl]methanone] | 1 | –
23 | (7S)-4-[(6-Chloropyrazolo[1,5-a]pyridin-5-yl)amino]-5,6,7,8-tetrahydro[1]benzothieno[2,3-d]pyrimidin-7-yl(4-[2-dimethylamino)ethyl](methyl)aminopiperidin-1-yl)methanone [Example 62] | 6 | –
